Test results taken from publication PMC10786919, “Design-rules for stapled peptides with in vivo activity and their application to Mdm2/X antagonists” (Nature Communications, 2024).
In brackets after ≈: the same amount, converted by molar mass. Where two headings read alike, the source gives them in different places. Positions of bridges follow the written chain, without caps; N, C: chain ends. Non-standard residues stand in square brackets, D forms with d. Residues, ends and D or L forms follow the SMILES beside them. Lys(N3) = [N-]=[N+]=NCCCC[C@H](N)C(=O)O; R8 = C=CCCCCCC[C@@](C)(N)C(=O)O; Cba = N[C@@H](CC1CCC1)C(=O)O; S5 = C=CCCC[C@](C)(N)C(=O)O; βAla = NCCC(=O)O

Tests used:
[1] = Experimental LogD (partition coefficient)
[2] = Solubility assay (kinetic solubility, PBS pH 7); format: physicochemical
How it was run: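 Quantitation uses an external standard at 100 µM, prepared from 10 mM stock in acetonitrile:methanol:DMSO (10:80:10). Solubility (µM) = (peak area of sample ÷ peak area of standard) × standard concentration.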

[3] = test system: panel of cancer cell lines, p53 WT or p53 deficient (null, mutant, HPV infected); format: cell-based; details: p53 WT vs p53 null/mutant/HPV
From the text: Amongst the cell lines used, the following lines are amongst those listed as frequently misidentified by the International Cell Line Authentication Committee: HeLa, A549, HepG2, MCF-7,LoVo, SW48,.AsPC-1,HL-60, and MIA PaCa-2. These latter lines were used in order to employ a variety of lines represented diverse cancer types and that represented different p53 status (wild-type, mutant, null, and HPV infected). Imporantly, assay ready cells were used for these experiments and PCR analysis of target short tandem repeat (STR) markers was used to authenticate cell lines prior to cell banking. Cell viabilities were determined using the CellTiter-Glo® assay kit (Promega G7558). […] Assay plates were incubated at 37 °C, 5% CO2 overnight to allow cell attachment. Following day, compounds were dispensed into the assay plate using the Tecan HPD300 system and incubated at 37 °C, 5% CO2 for 120 h. At 120 h post dose, CellTiter-Glo assay was performed according to the manufacturer’s protocol. […] Staurosporine (Selleckchem S1421) was used as a positive control for the assay.

[4] = Lactate dehydrogenase (LDH) release assay; format: cell-based
How it was run: (§1)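 Geometric means of at least three independent biological runs are given for LDH release measured in HCT116 cells stably expressing a p53-driven β-lactamase reporter. Plating density was 8000 cells/well; DMSO in wells was 0.5%.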

HCT116 cells = test: Lactate dehydrogenase (LDH) release assay; format: cell-based
How it was run: as §1

[5] = Nanoclick permeability assay
How it was run: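 Azido-peptide permeability was read as loss of NanoBRET signal (donor 450 nm, acceptor 610 nm) after adding NanoBret618-azide at 10 μM final.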

Ca Ski cell line = details: 72 h
How it was run: (§2)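 Compound dilution series (10 points, 3-fold, 10 mM top stock in DMSO) tested on overnight-plated Ca Ski cells in RPMI1640/10% FBS and on blasticidin-selected p53RE-bla HCT-116 cells in McCoy's 5A; read-out was CellTiter-Glo 2.0 luminescence after room-temperature equilibration.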

[6] = test system: CellSensor p53RE-bla HCT-116 Cell Line; details: 72 h
How it was run: as §2

in vitro = details: human, HCT116 whole cell homogenates
EPSA = format: physicochemical; details: EPSA
[7] = Fig S4

In the case of `CC(=O)N[C@@H](CCCCN=[N+]=[N-])C(=O)NCCC(=O)N[C@H]1CCCCNC(=O)CC[C@@H]2NC(=O)[C@@](C)(CCCCCCC=CCCC[C@@](C)(C(=O)N[C@@H](CO)C(=O)N[C@@H](C)C(=O)N[C@@H](C)C(N)=O)NC(=O)[C@H](CC3CCC3)NC(=O)[C@H](CCC(N)=O)NC(=O)[C@H](C)NC(=O)[C@H](Cc3c[nH]c4ccccc34)NC(=O)[C@H](Cc3ccc(O)cc3)NC2=O)NC(=O)[C@H](Cc2ccccc2)NC(=O)[C@H]([C@@H](C)O)NC1=O` [MP-002], the “Partition Coeff LogD” value [1] is reported as “Poorly Behaved”, the EPSA (physchem) is reported as 182 A^2 and the Solubility [2] is reported as “poor behavior”. For the same compound, the Solubility ([2]; pH 7, PBS) was “Poorly Behaved”, the “off-target proliferation effects in p53 deficient control lines” value [3] was “remarkably devoid of off-target toxicity” and the EC50 ([4]; 0% FBS 4Hr, read-out: LDH: Cytotoxicity assay: EC50) was > 50.7 µM. For the same compound, the EC50 ([4]; 0% FBS 16Hr, read-out: LDH: Cytotoxicity assay: EC50) was > 50.7 µM, the EC50 ([4]; 10% FBS 4Hr, read-out: LDH: Cytotoxicity assay: EC50) was > 50.7 µM and the EC50 ([4]; 10% FBS 16Hr, read-out: LDH: Cytotoxicity assay: EC50) was > 50.7 µM. For the same compound, the “LDH: Cytotoxicity assay: % Effect” value (HCT116 cells; 0% FBS 4Hr) was -7.169%, the “LDH: Cytotoxicity assay: % Effect” value (HCT116 cells; 0% FBS 16Hr) was 0.3781% and the “LDH: Cytotoxicity assay: % Effect” value (HCT116 cells; 10% FBS 4Hr) was -6.533%. The “LDH: Cytotoxicity assay: % Effect” value (HCT116 cells; 10% FBS 16Hr) was -11.6% and the cell entry EC50 [5] was 0.462 µM.
With `CC(=O)N[C@@H](CCCCN=[N+]=[N-])C(=O)NCCC(=O)N[C@@H](CC(C)C)C(=O)N[C@H](C(=O)N[C@@H](Cc1ccccc1)C(=O)N[C@]1(C)CCCCCCC=CCCC[C@@](C)(C(=O)N[C@@H](C)C(=O)N[C@@H](C)C(=O)N[C@@H](C)C(=O)N[C@@H](C)C(=O)N[C@@H](C)C(=O)N[C@H](C)C(N)=O)NC(=O)[C@H](CC2CCC2)NC(=O)[C@H](CCC(N)=O)NC(=O)[C@H](C)NC(=O)[C@H](Cc2c[nH]c3ccccc23)NC(=O)[C@H](Cc2ccc(O)cc2)NC(=O)[C@H](CCC(=O)O)NC1=O)[C@@H](C)O` [MP-464] (Ac-[Lys(N3)][βAla]LTF[R8]EYWAQ[Cba][S5]AAAAA[dA]-NH2; staple 6-13) the solubility kinetic ([2]; pH 7, aqueous buffer, kinetic from dmso stock, pH 7, PBS, read-out: Solubility) was 157 µM (≈ 340 µg/mL), the EC50 (Ca Ski cell line) was > 49.8 µM and the EC50 [6] was 0.42 µM. For the same compound, the EC50 ([4]; LDH: Cytotoxicity assay: EC50) was > 50.7 µM, the half-life at 1 μM (in vitro) was 1.53 h and the cell entry EC50 ([5]; Nanoclick permeability assay EC50) was 4.19 µM. The EPSA (EPSA) was 194 A^2 and the “stability in serum plasma” value [7] was “highly stable”.
With `CC1CCC(Cn2c(N3CCO[C@@H]4CCC[C@H]43)nc3cc(-c4noc(=O)[nH]4)nc(-c4cncc(Cl)c4)c32)CC1` (some centres unmarked) [MK-4688, reference compound] the “off-target proliferation effects in p53 deficient control lines” value [3] was “significant off-target toxicities”.
